Where a SMILES comes first, the peptide text is derived from it. Bridges are numbered along the chain shown (N, C = ends). Roman numbers before positions name the chains, in order. [ ]: non-standard residue; d: D form. Tle = CC(C)(C)[C@H](N)C(=O)O; dDab = NCC[C@@H](N)C(=O)O; Nle = CCCC[C@H](N)C(=O)O; Orn = NCCC[C@H](N)C(=O)O; Dab = NCC[C@H](N)C(=O)O; Sar = CNCC(=O)O Some results are limits rather than exact numbers.

What all share (format): cell-based
In data set [1] the test system is Acinetobacter baumannii DSM 30008. As to conditions: DSM 30008. A digest of the protocol:
(§1)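 Using the CLSI reference method, each strain at approx. 10^6 CFU/mL was exposed to serially diluted peptide in MH-II broth with 0.002% P-80. After 18-20 h at 35° C, the lowest concentration showing no visible growth gave the MIC.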

In data set [2] the test system is Pseudomonas aeruginosa ATCC 27853. As to conditions: ATCC 27853. A digest of the protocol: as §1
Another data set relates to Escherichia coli 926415. As to conditions: 926415.
The subject of data set [3] is Escherichia coli ATCC 25922. Conditions: ATCC 25922. A digest of the protocol: as §1
Data set [4] deals with Acinetobacter baumannii 872842. Conditions: 872842.
In data set [5] the test system is Klebsiella pneumoniae SSI #3010. Conditions: SSI #3010. A digest of the protocol: as §1
Data set [6] deals with Klebsiella pneumoniae 968733. Conditions: 968733.
In data set [7] the test system is human red blood cells (hRBC). Put plainly: Hemolysis of human red blood cells. Conditions: red cells of human, 1 h. A digest of the protocol:
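Hemolysis was read as supernatant absorbance at 540 nm and expressed as a percentage of Triton X-100 (2.5%) lysis. Washed human red cells (20% v/v) had been exposed to each peptide at 100 μg/mL for 1 h at 37° C.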

Take `CCCC[C@@H]1NC(=O)[C@@H]2CCCN2C(=O)[C@H]2CCCN2C(=O)[C@H](CO)NC(=O)[C@H](C)NC(=O)[C@H](C(C)(C)C)NC(=O)[C@H](CCN)NC(=O)[C@H](Cc2c[nH]c3ccccc23)NC(=O)[C@H](CCC(=O)N[C@H](C(=O)N[C@@H](CCN)C(=O)N[C@H]2CCNC(=O)[C@H]([C@@H](C)O)NC(=O)[C@H](CCN)NC(=O)[C@H](CCN)NC(=O)[C@H](CC(C)C)NC(=O)[C@@H](Cc3ccccc3)NC(=O)[C@H](CCN)NC2=O)[C@@H](C)O)NC(=O)[C@@H](CCN)NC(=O)[C@H](CCCN)NC(=O)[C@H](CCN)NC(=O)[C@H](Cc2ccc(O)cc2)NC(=O)[C@H](CO)NC1=O` [Ex. 75] (I: cyclo([Nle]SY[Dab][Orn][dDab]EW[Dab][Tle]AS[dP]P) / II: T[Dab][Dab][Dab][dF]L[Dab][Dab]T; amide I:7-II:N; lactam II:3-II:C): the “Acinetobacter baumannii DSM 30008 MIC” value in data set [1] was 0.5 µg/mL. Also, the “Pseudomonas aeruginosa ATCC 27853 MIC” value in data set [2] stood at 0.25 µg/mL. Also, in the data set on Escherichia coli 926415, the “Escherichia coli 926415 MIC” value is 1 µg/mL. In addition, in data set [3], the “Escherichia coli ATCC 25922 MIC” value came to 0.5 µg/mL. The “Acinetobacter baumannii 872842 MIC” value in data set [4] worked out at 2 µg/mL. Also, the “Klebsiella pneumoniae SSI #3010 MIC” value in data set [5] came out at 0.5 µg/mL. For the same compound, the “Klebsiella pneumoniae 968733 MIC” value in data set [6] came to 4 µg/mL. In data set [7] (100), the “Hemolysis at 100 μg/mL” value was less than 1%.

For `CC(C)C[C@@H]1NC(=O)[C@@H](CC(C)C)NC(=O)[C@H](CCN)NC(=O)[C@@H](NC(=O)[C@H](CCN)NC(=O)CN(C)C(=O)C[C@@H]2NC(=O)[C@H](CCN)NC(=O)[C@H](Cc3ccc(O)cc3)NC(=O)[C@H](CO)NC(=O)[C@H](CC(C)C)NC(=O)[C@@H]3CCCN3C(=O)[C@H]3CCCN3C(=O)[C@H](CO)NC(=O)[C@H](C)NC(=O)[C@H](C(C)C)NC(=O)[C@H](CCN)NC(=O)[C@H](Cc3c[nH]c4ccccc34)NC(=O)[C@H](CCN)NC(=O)[C@@H](CCN)NC2=O)CCNC(=O)[C@H]([C@@H](C)O)NC(=O)[C@H](CCN)NC(=O)[C@H](CCN)NC1=O` [Ex. 76] (I: cyclo(W[Dab]VAS[dP]PLSY[Dab]D[dDab][Dab]) / II: [Sar][Dab][Dab][Dab][dL]L[Dab][Dab]T; amide I:12-II:N; lactam II:3-II:C), in data set [1], the “Acinetobacter baumannii DSM 30008 MIC” value worked out at 1 µg/mL. Besides, the “Pseudomonas aeruginosa ATCC 27853 MIC” value in data set [2] is 0.5 µg/mL. Also, the “Escherichia coli 926415 MIC” value in the data set on Escherichia coli 926415 was determined as 0.5 µg/mL. The “Escherichia coli ATCC 25922 MIC” value in data set [3] came to 2 µg/mL. In data set [4], the “Acinetobacter baumannii 872842 MIC” value was determined as 0.5 µg/mL. Besides, the “Klebsiella pneumoniae SSI #3010 MIC” value in data set [5] is 2 µg/mL. For the same compound, the “Klebsiella pneumoniae 968733 MIC” value in data set [6] is 2 µg/mL. For the same compound, in data set [7] (100), the “Hemolysis at 100 μg/mL” value stood at 1%.

With `CC(C)C[C@@H]1NC(=O)[C@@H](CC(C)C)NC(=O)[C@H](CCN)NC(=O)[C@@H](NC(=O)[C@H](CCN)NC(=O)CN(C)C(=O)C[C@@H]2NC(=O)[C@H](CCCN)NC(=O)[C@H](CCN)NC(=O)[C@H](Cc3ccc(O)cc3)NC(=O)[C@H](CO)NC(=O)[C@H](CC(C)C)NC(=O)[C@@H]3CCCN3C(=O)[C@H]3CCCN3C(=O)[C@H](Cc3ccc(O)cc3)NC(=O)[C@H](C)NC(=O)[C@H](C(C)(C)C)NC(=O)[C@H](CCN)NC(=O)[C@H](Cc3c[nH]c4ccccc34)NC(=O)[C@H](CCN)NC2=O)CCNC(=O)[C@H]([C@@H](C)O)NC(=O)[C@H](CCN)NC(=O)[C@H](CCN)NC1=O` [Ex. 77] (I: cyclo(LSY[Dab][Orn]D[Dab]W[Dab][Tle]AY[dP]P) / II: [Sar][Dab][Dab][Dab][dL]L[Dab][Dab]T; amide I:6-II:N; lactam II:3-II:C), in data set [1], the “Acinetobacter baumannii DSM 30008 MIC” value was found to be 1 µg/mL. For the same compound, the “Pseudomonas aeruginosa ATCC 27853 MIC” value in data set [2] was 1 µg/mL. For the same compound, the “Escherichia coli 926415 MIC” value in the data set on Escherichia coli 926415 was determined as 0.5 µg/mL. In data set [3], the “Escherichia coli ATCC 25922 MIC” value was found to be 1 µg/mL. For the same compound, the “Acinetobacter baumannii 872842 MIC” value in data set [4] worked out at 2 µg/mL. For the same compound, the “Klebsiella pneumoniae SSI #3010 MIC” value in data set [5] was 1 µg/mL. Besides, the “Klebsiella pneumoniae 968733 MIC” value in data set [6] was found to be 2 µg/mL. For the same compound, the “Hemolysis at 100 μg/mL” value in data set [7] (100) is less than 1%.

As for `CCCC[C@@H]1NC(=O)[C@@H]2CCCN2C(=O)[C@H]2CCCN2C(=O)[C@H](CO)NC(=O)[C@H](C)NC(=O)[C@H](C(C)(C)C)NC(=O)[C@H](CCN)NC(=O)[C@H](Cc2c[nH]c3ccccc23)NC(=O)[C@H](CCN)NC(=O)[C@H](CCC(=O)N[C@@H](CCN)C(=O)N[C@H](CCN)C(=O)N[C@H]2CCNC(=O)[C@H]([C@@H](C)O)NC(=O)[C@H](CCN)NC(=O)[C@H](CCN)NC(=O)[C@H](CC(C)C)NC(=O)[C@@H](CC(C)C)NC(=O)[C@H](CCN)NC2=O)NC(=O)[C@H](CCCN)NC(=O)[C@H](CCN)NC(=O)[C@H](Cc2ccc(O)cc2)NC(=O)[C@H](CO)NC1=O` [Ex. 78] (I: cyclo([Nle]SY[Dab][Orn]E[Dab]W[Dab][Tle]AS[dP]P) / II: [Dab][dDab][Dab][Dab][dL]L[Dab][Dab]T; amide I:6-II:N; lactam II:3-II:C), in data set [1], the “Acinetobacter baumannii DSM 30008 MIC” value amounted to 0.5 µg/mL. Also, the “Pseudomonas aeruginosa ATCC 27853 MIC” value in data set [2] turned out to be 0.25 µg/mL. In the data set on Escherichia coli 926415, the “Escherichia coli 926415 MIC” value amounted to 0.5 µg/mL. For the same compound, the “Escherichia coli ATCC 25922 MIC” value in data set [3] was 0.5 µg/mL. Moreover, in data set [4], the “Acinetobacter baumannii 872842 MIC” value worked out at 1 µg/mL. Moreover, in data set [5], the “Klebsiella pneumoniae SSI #3010 MIC” value came out at 0.5 µg/mL. In data set [6], the “Klebsiella pneumoniae 968733 MIC” value was 0.5 µg/mL. Also, the “Hemolysis at 100 μg/mL” value in data set [7] (100) was found to be 1%.

Consider `CC(C)C[C@@H]1NC(=O)[C@@H](CC(C)C)NC(=O)[C@H](CCN)NC(=O)[C@@H](NC(=O)[C@H](CCN)NC(=O)[C@H](CCN)NC(=O)[C@@H]2CCC(=O)N[C@@H](CCN)C(=O)N[C@@H](Cc3c[nH]c4ccccc34)C(=O)N[C@H]3CSSC[C@H](NC(=O)[C@H](Cc4ccc(O)cc4)NC(=O)[C@H](CO)NC(=O)[C@H](CC(C)C)NC(=O)[C@@H]4CCCN4C(=O)[C@H]4CCCN4C(=O)[C@H](CO)NC(=O)[C@H](C)NC(=O)[C@H](C(C)C)NC3=O)C(=O)NCC(=O)N2)CCNC(=O)[C@H]([C@@H](C)O)NC(=O)[C@H](CCN)NC(=O)[C@H](CCN)NC1=O` [Ex. 79] ([Dab]WCVAS[dP]PLSYCGE[Dab][Dab][Dab][Dab][dL]L[Dab][Dab]T; disulfide 3-12; lactam 17-C, N-14), for which, in data set [1], the “Acinetobacter baumannii DSM 30008 MIC” value came to 0.5 µg/mL. Also, in data set [2], the “Pseudomonas aeruginosa ATCC 27853 MIC” value amounted to 0.5 µg/mL. In addition, the “Escherichia coli 926415 MIC” value in the data set with Escherichia coli 926415 came out at 2 µg/mL. Besides, the “Escherichia coli ATCC 25922 MIC” value in data set [3] was 0.5 µg/mL. The “Acinetobacter baumannii 872842 MIC” value in data set [4] is 2 µg/mL. The “Klebsiella pneumoniae SSI #3010 MIC” value in data set [5] amounted to 1 µg/mL. In data set [6], the “Klebsiella pneumoniae 968733 MIC” value stood at 8 µg/mL. For the same compound, the “Hemolysis at 100 μg/mL” value in data set [7] (100 μg/mL) is listed as less than 1%.

Source of the values: US10829520B2, “Beta-hairpin peptidomimetics” (POLYPHOR AG, priority 2015, dated 2020).
